Measured values reported in PubChem BioAssay AID330 (DTP/NCI, 2004).
Values joined by “and” are separate entries in the source; they are usually repeats but may differ in a detail not shown here. Identical values can stand only once. Toxic doses and inconclusive results are not listed. How the source made its calls: active means survival T/C of 150% or more; inactive means T/C below 125% in these data. Peptide text beside a SMILES is read from it. * marks the point of attachment. Boc = CC(C)(C)OC(=O)*

Test system: P388 leukemia ip, CD2F1 mice, survival T/C
Assay: NCI In Vivo Anticancer Drug Screen. Data for tumor model P388 Leukemia (intraperitoneal) in CD2F1 (CDF1) mice
Conditions: endpoint: median survival time, higher = longer survival
Procedure, shortened: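 Mice carrying the transplanted tumor received test compound or vehicle. Survival was recorded in each group, and the value is the treated-group measurement divided by that of the vehicle-treated control group.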

[1] = dose: 50.0 mg/kg/injection, schedule: Q01DX009 (ip), vehicle: Klucel (hydroxypropylcellulose) (HPC)
[2] = dose: 100.0 mg/kg/injection, schedule: Q01DX009 (ip), vehicle: Klucel (hydroxypropylcellulose) (HPC)
[3] = dose: 200.0 mg/kg/injection, schedule: Q01DX009 (ip), vehicle: Klucel (hydroxypropylcellulose) (HPC)
[4] = dose: 50.0 mg/kg/injection, schedule: Q01DX009 (ip), vehicle: saline with Tween-80
[5] = dose: 100.0 mg/kg/injection, schedule: Q01DX009 (ip), vehicle: saline with Tween-80
[6] = dose: 200.0 mg/kg/injection, schedule: Q01DX009 (ip), vehicle: saline with Tween-80
[7] = dose: 60.0 mg/kg/injection, schedule: Q01DX005 (ip), vehicle: saline
[8] = dose: 120.0 mg/kg/injection, schedule: Q01DX005 (ip), vehicle: saline
[9] = dose: 240.0 mg/kg/injection, schedule: Q01DX005 (ip), vehicle: saline
[10] = dose: 50.0 mg/kg/injection, schedule: Q01DX005 (ip), vehicle: Klucel (hydroxypropylcellulose) (HPC)
[11] = dose: 100.0 mg/kg/injection, schedule: Q01DX005 (ip), vehicle: Klucel (hydroxypropylcellulose) (HPC)
[12] = dose: 200.0 mg/kg/injection, schedule: Q01DX005 (ip), vehicle: Klucel (hydroxypropylcellulose) (HPC)

Measured: T/C

[N-]=[N+]=N[Si](c1ccccc1)(c1ccccc1)c1ccccc1
inactive: [1] 103 % of control | [2] 101 % of control | [3] 103 % of control

Nc1nnc(N)n1N
inactive: [4] 108 % of control | [5] 115 % of control | [6] 99 % of control | dose: 400.0 mg/kg/injection, schedule: Q01DX009 (ip), vehicle: saline with Tween-80 93 % of control

CC1(C)OC2OC3C(O)C(=O)OC3C2O1 (configuration not stated)
inactive: [7] 107 % of control | [8] 97 % of control | [9] 99 % of control

Cc1c[nH]c2nc(C)n(-c3ccc(F)cc3)c(=N)c12
inactive: dose: 6.25 mg/kg/injection, schedule: Q01DX005 (ip), vehicle: Klucel (hydroxypropylcellulose) (HPC) 100 % of control | dose: 12.5 mg/kg/injection, schedule: Q01DX005 (ip), vehicle: Klucel (hydroxypropylcellulose) (HPC) 102 % of control | dose: 25.0 mg/kg/injection, schedule: Q01DX005 (ip), vehicle: Klucel (hydroxypropylcellulose) (HPC) 100 % of control

CCNCC(=O)Nc1ccc(C2NC(=O)C(C)(C)c3ccccc32)cc1 (configuration not stated)
inactive: dose: 50.0 mg/kg/injection, schedule: Q01DX009 (ip), vehicle: saline 99 % of control | dose: 100.0 mg/kg/injection, schedule: Q01DX009 (ip), vehicle: saline 101 % of control | dose: 200.0 mg/kg/injection, schedule: Q01DX009 (ip), vehicle: saline 97 % of control

CC(=O)Nc1c(Cl)cc(Cl)c2c1Cc1cc(Cl)ccc1-2
inactive: [10] 88 % of control | [11] 94 % of control | [12] 112 % of control

O=C(c1ccccc1[N+](=O)[O-])C1OC1c1ccccc1 (configuration not stated)
inactive: [10] 102 % of control | [11] 99 % of control | [12] 96 % of control

CCCC1CC[N-]CC1.CCCC1CC[N-]CC1.CCCC1CC[N-]CC1.CCCC1CC[N-]CC1.CS(C)=O.CS(C)=O.[Cl-].[Cl-].[Cl-].[Cl-].[Cl][Rh][Cl].[Rh+3]
inactive: dose: 3.13 mg/kg/injection, schedule: Q01DX009 (ip), vehicle: saline 117 % of control | dose: 12.5 mg/kg/injection, schedule: Q01DX009 (ip), vehicle: saline with Tween-80 123 % of control

CS(=O)(=O)C(=S)Sc1ccccc1
inactive: dose: 25.0 mg/kg/injection, schedule: Q01DX001 (ip), vehicle: saline with Tween-80 97 % of control | dose: 50.0 mg/kg/injection, schedule: Q01DX001 (ip), vehicle: saline with Tween-80 97 % of control

CNC(=O)c1cccc2ccc[n+](C)c12
inactive: dose: 0.62 mg/kg/injection, schedule: Q04DX002 (ip), vehicle: saline 107 % of control | dose: 1.25 mg/kg/injection, schedule: Q04DX002 (ip), vehicle: saline 109 % of control | dose: 2.5 mg/kg/injection, schedule: Q04DX002 (ip), vehicle: saline 108 % of control

O=C(CSc1nc(-c2ccccc2)c(-c2ccccc2)o1)N1CCOCC1
inactive: dose: 12.5 mg/kg/injection, schedule: Q01DX009 (ip), vehicle: Klucel (hydroxypropylcellulose) (HPC) 105 % of control | dose: 25.0 mg/kg/injection, schedule: Q01DX009 (ip), vehicle: Klucel (hydroxypropylcellulose) (HPC) 105 % of control | [1] 106 % of control and 110 % of control | [2] 107 % of control and 120 % of control | [3] 110 % of control

CN(C)C(=O)C1CCC1
inactive: dose: 100.0 mg/kg/injection, schedule: Q04DX003 (ip), vehicle: saline with Tween-80 95 % of control | dose: 200.0 mg/kg/injection, schedule: Q04DX003 (ip), vehicle: saline with Tween-80 100 % of control | dose: 400.0 mg/kg/injection, schedule: Q04DX003 (ip), vehicle: saline with Tween-80 100 % of control

NC1CC2(CCC1=O)c1ccccc1-c1ccccc12 (configuration not stated)
inactive: dose: 100.0 mg/kg/injection, schedule: Q01DX001 (ip), vehicle: saline with Tween-80 105 % of control | dose: 400.0 mg/kg/injection, schedule: Q01DX001 (ip), vehicle: saline with Tween-80 102 % of control

O=C(Nc1cccc2ccccc12)NN1C(=O)CSC1=S
inactive: [4] 90 % of control | [5] 93 % of control | [6] 91 % of control

CCC(C)C(NC(=O)OC(C)(C)C)C(=O)NC(CCSC)C(N)=O (stereo not drawn) (Boc-Ile-Met-NH2; configuration not given here)
inactive: [10] 97 % of control | [11] 95 % of control | [12] 89 % of control

COC(=O)C1(CS(C)(=O)=O)NC(=S)NC(=O)C1C#N (configuration not stated)
inactive: [7] 97 % of control | [8] 91 % of control | [9] 91 % of control

CC(=O)C(C)C(C)=NCCN=C(C)C(C)C(C)=O (configuration not stated)
inactive: [10] 110 % of control | [11] 110 % of control | [12] 103 % of control

C/C(=N\NC(=S)N1CCCCCC1)c1cccc2cccnc12
inactive: dose: 50.0 mg/kg/injection, schedule: Q01DX005 (ip), vehicle: saline with Tween-80 107 % of control | dose: 100.0 mg/kg/injection, schedule: Q01DX005 (ip), vehicle: saline with Tween-80 103 % of control | dose: 200.0 mg/kg/injection, schedule: Q01DX005 (ip), vehicle: saline with Tween-80 116 % of control

Oc1ccccc1C=NCCN1CC1.Oc1ccccc1C=NCCN1CC1.[Co+2]
inactive: dose: 4.7 mg/kg/injection, schedule: Q01DX009 (ip), vehicle: saline 103 % of control | dose: 9.4 mg/kg/injection, schedule: Q01DX009 (ip), vehicle: saline 102 % of control | dose: 18.8 mg/kg/injection, schedule: Q01DX009 (ip), vehicle: saline 100 % of control | dose: 37.5 mg/kg/injection, schedule: Q01DX009 (ip), vehicle: saline 100 % of control and 97 % of control

C[Si](C)(C)Cn1ccc(=O)[nH]c1=O
inactive: dose: 60.0 mg/kg/injection, schedule: Q01DX005 (ip), vehicle: Klucel + Tween-80 94 % of control | dose: 120.0 mg/kg/injection, schedule: Q01DX005 (ip), vehicle: Klucel + Tween-80 92 % of control | dose: 240.0 mg/kg/injection, schedule: Q01DX005 (ip), vehicle: Klucel + Tween-80 98 % of control

Cc1[nH]c2c(N)cccc2c1C
inactive: [4] 97 % of control | [5] 90 % of control | [6] 88 % of control

NC(=O)N/N=C/Cn1ccc(=O)[nH]c1=O
inactive: [10] 99 % of control | [11] 97 % of control | [12] 90 % of control
